Laboratory results taken from the NIST ThermoML archive (doi:10.1016/j.jct.2015.03.023).
“And” between values parts separate entries of the source, which are not always exact repeats. Identical values can stand only once. ± gives the expanded uncertainty stated by the source.

Key:
[1] = refractive index (Na D-line) (dimensionless); xn = mol fraction of the nth substance listed; details: 101.22 kPa, Liquid, Standard Abbe refractometry
[2] = refractive index (Na D-line) (dimensionless); details: 101.33 kPa, Liquid, Standard Abbe refractometry
[3] = Liquid; for speed of sound / mass density: 101.33 kPa; for speed of sound: Sing-around technique in a fixed-path interferometer; for mass density: Vibrating tube method; for vapor or sublimation pressure: Ebulliometric method (Recirculating still)

What does the source list for `CCCCn1cc[n+](C)c1.[I-]` [1-butyl-3-methylimidazolium iodide] + CCCCO?
refractive index ([1]; 293.15 K, x1 = 0.311): 1.4864 ± 0.0006; refractive index ([1]; 293.15 K, x1 = 0.381): 1.5007 ± 0.0005; refractive index ([1]; 293.15 K, x1 = 0.51): 1.5237 ± 0.0005; refractive index ([1]; 293.15 K, x1 = 0.574): 1.5339 ± 0.0005; refractive index ([1]; 293.15 K, x1 = 0.623): 1.541 ± 0.0005; refractive index ([1]; 293.15 K, x1 = 0.802): 1.5634 ± 0.0005; refractive index ([1]; 293.15 K, x1 = 0.85): 1.5686 ± 0.0004; refractive index ([1]; 293.15 K, x1 = 1): 1.5825 ± 0.0004; refractive index ([1]; 298.15 K, x1 = 0.108): 1.4332 ± 0.0007; refractive index ([1]; 298.15 K, x1 = 0.171): 1.4508 ± 0.0006; refractive index ([1]; 298.15 K, x1 = 0.311): 1.4848 ± 0.0006; refractive index ([1]; 298.15 K, x1 = 0.381): 1.4991 ± 0.0005; refractive index ([1]; 298.15 K, x1 = 0.51): 1.5221 ± 0.0005; refractive index ([1]; 298.15 K, x1 = 0.574): 1.5322 ± 0.0005; refractive index ([1]; 298.15 K, x1 = 0.623): 1.5393 ± 0.0005; refractive index ([1]; 298.15 K, x1 = 0.802): 1.5618 ± 0.0005; refractive index ([1]; 298.15 K, x1 = 0.85): 1.567 ± 0.0004; refractive index ([1]; 298.15 K, x1 = 1): 1.581 ± 0.0004; refractive index ([1]; 308.15 K, x1 = 0.108): 1.4294 ± 0.0007; refractive index ([1]; 308.15 K, x1 = 0.171): 1.4472 ± 0.0006; refractive index ([1]; 308.15 K, x1 = 0.311): 1.4815 ± 0.0006; refractive index ([1]; 308.15 K, x1 = 0.381): 1.4958 ± 0.0005; refractive index ([1]; 308.15 K, x1 = 0.51): 1.5189 ± 0.0005; refractive index ([1]; 308.15 K, x1 = 0.574): 1.5289 ± 0.0005; refractive index ([1]; 308.15 K, x1 = 0.623): 1.5361 ± 0.0005; refractive index ([1]; 308.15 K, x1 = 0.802): 1.5587 ± 0.0005; refractive index ([1]; 308.15 K, x1 = 0.85): 1.5639 ± 0.0004; refractive index ([1]; 308.15 K, x1 = 1): 1.5781 ± 0.0004

For `CCCCO` [butan-1-ol] + CCCCn1cc[n+](C)c1.[I-], which refractive index ([1]; 293.15 K, x2 = 0) is on record?
Its refractive index is 1.3992 ± 0.0004.

And the refractive index ([1]; 298.15 K, x2 = 0)?
Its refractive index is 1.3973 ± 0.0004.

What about the refractive index ([1]; 308.15 K, x2 = 0) of the same compound?
Its refractive index is 1.3932 ± 0.0004.

What does the source list for `CCCCO` [butan-1-ol]?
refractive index ([2]; 293.15 K): 1.3992 ± 0.0004 and 1.3993 ± 0.0004; refractive index ([2]; 298.15 K): 1.3973 ± 0.0004; refractive index ([2]; 308.15 K): 1.3932 ± 0.0004; speed of sound ([3]; 293.15 K): 1256.3 ± 1.3 m/s; mass density ([3]; 293.15 K): 809.8 ± 0.2 kg/m3; speed of sound ([3]; 298.15 K): 1239.5 ± 1.3 m/s; mass density ([3]; 298.15 K): 805.9 ± 0.2 kg/m3; speed of sound ([3]; 308.15 K): 1205.9 ± 1.3 m/s; mass density ([3]; 308.15 K): 798.2 ± 0.2 kg/m3; vapor or sublimation pressure ([3]; 353.15 K): 21.19 ± 0.49 kPa; vapor or sublimation pressure ([3]; 363.15 K): 33.8 ± 0.74 kPa; vapor or sublimation pressure ([3]; 373.15 K): 51.73 ± 1.1 kPa

With `CCCCn1cc[n+](C)c1.[I-]` [1-butyl-3-methylimidazolium iodide] as the compound, how does the refractive index ([2]; 293.15 K) read?
The refractive index was 1.5825 ± 0.0011.

What about the refractive index ([2]; 298.15 K) of the same compound?
Its refractive index is 1.581 ± 0.0011.

What about the refractive index ([2]; 308.15 K) of the same compound?
Its refractive index is 1.5781 ± 0.0011.

What about the speed of sound ([3]; 293.15 K) of the same compound?
The speed of sound was 1508.1 ± 1.6 m/s.

What about the mass density ([3]; 293.15 K) of the same compound?
Its mass density is 1483.5 ± 0.7 kg/m3.

And the speed of sound ([3]; 298.15 K)?
The speed of sound was 1497.5 ± 1.6 m/s.

What about the mass density ([3]; 298.15 K) of the same compound?
Its mass density is 1479.6 ± 0.7 kg/m3.

What about the speed of sound ([3]; 308.15 K) of the same compound?
Its speed of sound is 1473.3 ± 1.6 m/s.

And the mass density ([3]; 308.15 K)?
Its mass density is 1471.7 ± 0.6 kg/m3.
